Assay [1] concerns the target Caspase-5 (Homo sapiens (Human), UniProt P51878). Kind of assay: Fluorometric enzymatic assay, active recombinant Caspase-5. It is filed as biochemical. The method, then:
(§1) . In brief, each compound was serially diluted for a final test concentration range of 0.1 nM to 3.3 μM (10-point titration). Each active recombinant Caspase (Active Recombinant Caspase Set IV™ (BioVision, Cat# K233-10-25)) was added to the respective wells of the 96-well High Efficiency™ plates (Molecular Devices, Cat#75-000-0005), followed by the addition of the diluted test compounds. DMSO (Final=1%) or Z-VAD-FMK (Caspase-Family Inhibitor, Z-VAD-FMK (BioVision, Cat#1010-100), Final concentration=20 uM) was added in the designated wells as a background control or positive inhibitor control respectively. Each dilution of the test compounds was tested in duplicates, whereas the DMSO or Z-VAD-FMK controls were tested in triplicates. The synthetic peptide substrate specific for each Caspase (BioVision) was then added to the respective wells, which when cleaved by the active caspase releases free AFC that can be quantified by fluorometry. After a 30-minute incubation at 37° C., the plates were read using the Flexstation 3™ with a 400 nm excitation filter and a 505 nm emission filter (cutoff at 495 nm). The inhibition efficiency and the IC50 values of the test compounds were then determined by comparing the fluorescence intensity (FI) of the test compounds with that of the DMSO control.
(§2) The SoftMax Pro Software™ (v5.2 rev C, Molecular Devices) was used for data analysis. The % Inhibition is calculated by: % Inhibition=[FI(DMSO)−FI(test sample)/FI(DMSO)]×100. The % Inhibition vs. Log(concentration) was plotted, and the curve was fitted using the 5-parameter fit of the software.

Assay [2] concerns the target Caspase-6 (Homo sapiens (Human), UniProt P55212). Kind of assay: Fluorometric enzymatic assay, active recombinant Caspase-6. It is filed as biochemical. The method, then:
as §1, §2

The target in assay [3] is Caspase-1 (Homo sapiens (Human), UniProt P29466). Kind of assay: Fluorometric enzymatic assay, active recombinant Caspase-1.
Sequence of Caspase-1 (P29466 whole entry, looked up): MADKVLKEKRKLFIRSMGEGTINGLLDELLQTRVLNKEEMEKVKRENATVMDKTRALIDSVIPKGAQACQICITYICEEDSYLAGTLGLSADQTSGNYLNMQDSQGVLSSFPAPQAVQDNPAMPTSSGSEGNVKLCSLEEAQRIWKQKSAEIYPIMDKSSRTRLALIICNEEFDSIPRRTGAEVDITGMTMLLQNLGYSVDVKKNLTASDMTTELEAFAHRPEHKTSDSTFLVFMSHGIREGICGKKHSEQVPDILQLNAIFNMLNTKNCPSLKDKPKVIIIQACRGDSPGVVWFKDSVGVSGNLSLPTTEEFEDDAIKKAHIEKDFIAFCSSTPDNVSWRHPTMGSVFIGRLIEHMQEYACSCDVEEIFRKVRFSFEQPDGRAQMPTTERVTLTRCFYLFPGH
Sequence of Caspase-1 (P29466 whole entry, looked up): as above
Experimental: (§3) Each dilution of the test compounds was tested in duplicates, whereas the DMSO or Z-VAD-FMK controls were tested in triplicates. […] The inhibition efficiency and the IC50 values of the test compounds were then determined by comparing the fluorescence intensity (FI) of the test compounds with that of the DMSO control.
Assay [4] has as its target Caspase-4 (Homo sapiens (Human), UniProt P49662). Kind of assay: Fluorometric enzymatic assay, active recombinant Caspase-4.
Experimental: as §3
Assay [5] concerns EAE in C57BL/6 mice. Kind of assay: Chronic EAE mouse model (MOG35-55 immunization), daily clinical score and body weight. It counts as in vivo. On the set-up: key to Delay in onset of the disease / Reduction in severity of the disease / Reduction in body weight loss: +++: high level improvement; ++: moderate improvement; +: small improvement; −: no improvement. To be noted: for Delay in onset of the disease / Reduction in body weight loss / Reduction in severity of the disease: average overall effects on the EAE model, i.p. From the text:
The aim of this study was to verify the effectiveness of compounds in a chronic mouse animal model of EAE. EAE is a good proof-of-principle model of neurodegeneration since it encompasses degeneration or destruction of practically all the cells in the central nervous system, includes most major immunomodulatory components, and is able to maintain normal innate regenerative functions in the animal. This is a standard model (Antel J P et al., J Neurosci Res. 1997, 50: 345-353) used mainly to mimic the course evolution of Multiple Sclerosis (MS) in humans, and is commonly used for studying disease mechanisms and testing potential therapies. EAE is induced by immunization with myelin proteins, leading to development of myelin-specific T cells. These autoreactive T cells traffic into CNS parenchyma where they initiate an inflammatory cascade through recruitment of other cells such as monocytes and neutrophils. Accumulation of immune cells within CNS leads to myelin damage, axonal loss and clinical deficit in affected animals. EAE can be induced in a variety of species and strains of animals [mice, Rat, marmoset monkey, rhesus macaques] using various CNS antigens [Myelin Oligodendrocyte Glycoprotein (MOG), proteolipid protein (PLP) and myelin basic protein (MBP)]. Seven to 8 week old female C57BL/6 mice were purchased from Charles River Laboratories, and housed at MISPRO™ animal facility for one week before experimentation for adaptation to the new environment. All proper animal experimentation and ethics approvals were obtained prior to the start of any experiments. Mice were immunized subcutaneously with 100 μg of MOG35-55 (Sheldon Biotechnology Centre, McGill University) in CFA containing 5 mg/ml of desiccated (killed and dried) Mycobacterium tuberculosis H37Ra (Difco, Inc), at two sites on the back. The mice were then injected with 200 ng of pertussis toxin (List Biological Laboratories, Inc) in PBS intraperitoneally on days 0 and 2 using 25 gauge needles and scored daily using an EAE clinical scale as detailed below (Touil T et al., J Neurol Sci. 2008, 271:191-202; Antel J P et al., 1997, supra; Owens T et al., Curr Pharm Des. 2005, 1:1031-1037).
EAE was clinically assessed throughout the experiments by daily scoring using a scale from 0 to 5 as follows: partial limp tail, 0.5; full limp tail, 1; limp tail and waddling gait, 1.5; paralysis of one hind limb, 2; paralysis of one hind limb and partial paralysis of other hind limb, 2.5; paralysis of both hind limbs, 3; ascending paralysis, 3.5; paralysis of trunk, 4; moribund, 4.5; death, 5. In all the EAE models a body weight loss is always associated with the clinical signs. This body weight loss is associated with the loss of the function and the paralysis of the muscle (atrophy inducing loss of weight). For animals showing a clinical sign of 2 or more, the food and the water were presented inside the cage to facilitate eating and drinking.
At the onset of clinical signs of EAE, the mice were treated with 200 μl of Compound 51, 53, 57, 59, 101, 104, 105, 111 or 123 dissolved in 2.5% Dimethyl sulfoxide (DMSO) in PBS, while placebo groups were treated with 2.5% Dimethyl sulfoxide (DMSO) in PBS only, by intraperitoneal injection at different time of the clinical evolution.

The target in assay [6] is Caspase-2 (Homo sapiens (Human), UniProt P42575). Put plainly: Fluorometric enzymatic assay, active recombinant Caspase-2. It is filed as biochemical. The method, then:
as §1, §2

For assay [7], the target named is Caspase-7 (Homo sapiens (Human), UniProt P55210). Put plainly: Fluorometric enzymatic assay, active recombinant Caspase-7.
Sequence of Caspase-7 (P55210 whole entry, looked up): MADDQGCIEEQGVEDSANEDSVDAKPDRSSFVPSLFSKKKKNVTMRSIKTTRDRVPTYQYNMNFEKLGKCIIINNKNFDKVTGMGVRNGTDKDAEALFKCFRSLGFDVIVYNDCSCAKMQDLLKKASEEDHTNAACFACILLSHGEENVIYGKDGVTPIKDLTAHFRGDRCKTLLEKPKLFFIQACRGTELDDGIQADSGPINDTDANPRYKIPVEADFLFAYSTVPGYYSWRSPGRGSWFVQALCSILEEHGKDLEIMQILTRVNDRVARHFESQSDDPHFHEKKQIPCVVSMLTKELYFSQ
Sequence of Caspase-7 (P55210 whole entry, looked up): as above
Experimental: as §3
In assay [8] the target is Caspase-9 (Homo sapiens (Human), UniProt P55211). Kind of assay: Fluorometric enzymatic assay, active recombinant Caspase-9. As to conditions: for IC50: read-out: IC50 values (μM) Caspase-9, 10-point titration 0.1 nM to 3.3 μM, 30-minute incubation at 37° C.; for inhibitory activity towards Caspase-9: FIG. 5.
Sequence of Caspase-9 (P55211 whole entry, looked up, change not shown): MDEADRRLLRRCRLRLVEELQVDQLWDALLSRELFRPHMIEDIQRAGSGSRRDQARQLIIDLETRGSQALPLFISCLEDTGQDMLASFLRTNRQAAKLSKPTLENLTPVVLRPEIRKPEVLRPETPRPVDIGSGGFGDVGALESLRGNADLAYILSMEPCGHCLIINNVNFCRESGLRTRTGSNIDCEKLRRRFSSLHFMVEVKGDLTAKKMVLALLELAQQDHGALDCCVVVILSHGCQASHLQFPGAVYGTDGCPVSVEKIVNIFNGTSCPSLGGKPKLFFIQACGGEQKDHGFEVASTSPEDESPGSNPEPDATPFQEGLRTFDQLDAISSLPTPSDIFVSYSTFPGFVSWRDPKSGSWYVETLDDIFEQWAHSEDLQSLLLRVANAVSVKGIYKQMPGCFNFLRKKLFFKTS
Sequence of Caspase-9 (P55211 whole entry, looked up, change not shown): as above
Experimental: as §3
Assay [9] has as its target Caspase-10 (Homo sapiens (Human), UniProt Q92851). Kind of assay: Fluorometric enzymatic assay, active recombinant Caspase-10. To be noted: for inhibitory activity towards Caspase-10: FIG. 5.
Experimental: as §3
Assay [10] addresses Caspase-3 (Homo sapiens (Human), UniProt P42574). Put plainly: Fluorometric enzymatic assay, active recombinant Caspase-3. To be noted: for inhibitory activity towards Caspase-3: FIG. 5; for IC50: read-out: IC50 values (μM) Caspase-3, 10-point titration 0.1 nM to 3.3 μM, 30-minute incubation at 37° C.
Experimental: as §3
Assay [11] has as its target Caspase-8 (Homo sapiens (Human), UniProt Q14790). Put plainly: Fluorometric enzymatic assay, active recombinant Caspase-8. It counts as biochemical. The method, then:
as §1, §2

For assay [12], the system named is Caspase-1 to -10. Put plainly: Fluorometric caspase enzymatic assays, positive inhibitor control (all experiments). It is filed as biochemical. To be noted: Final concentration=20 uM. As to the method: as §1, with “In” for “. In”, “control. […]” for “control.”
[13] abbreviates: 10-point titration 0.1 nM to 3.3 μM, 30-minute incubation at 37° C., read-out: IC50 values (μM) Caspase-5.
Where [14] appears, read: 10-point titration 0.1 nM to 3.3 μM, 30-minute incubation at 37° C., read-out: IC50 values (μM) Caspase-6.
[15] abbreviates: read-out: IC50 values (μM) Caspase-1, 10-point titration 0.1 nM to 3.3 μM, 30-minute incubation at 37° C.
[16] abbreviates: read-out: IC50 values (μM) Caspase-4, 10-point titration 0.1 nM to 3.3 μM, 30-minute incubation at 37° C.
The mark [17] stands for this setting: FIG. 3, i.p. from day 14 to 19 post immunization, versus placebo.
The mark [18] stands for this setting: 10-point titration 0.1 nM to 3.3 μM, 30-minute incubation at 37° C., read-out: IC50 values (μM) Caspase-2.
[19] abbreviates: read-out: IC50 values (μM) Caspase-7, 10-point titration 0.1 nM to 3.3 μM, 30-minute incubation at 37° C.
Where [20] appears, read: read-out: IC50 values (μM) Caspase-10, 10-point titration 0.1 nM to 3.3 μM, 30-minute incubation at 37° C.
Where [21] appears, read: 10-point titration 0.1 nM to 3.3 μM, 30-minute incubation at 37° C., read-out: IC50 values (μM) Caspase-8.

Read-outs that look alike come from different tables or passages of the source. Peptide text beside a SMILES is read from it. * marks the point of attachment. Cbz = O=C(OCc1ccccc1)*; CH2F = FC*

Sequence of Caspase-3 (P42574 29-175): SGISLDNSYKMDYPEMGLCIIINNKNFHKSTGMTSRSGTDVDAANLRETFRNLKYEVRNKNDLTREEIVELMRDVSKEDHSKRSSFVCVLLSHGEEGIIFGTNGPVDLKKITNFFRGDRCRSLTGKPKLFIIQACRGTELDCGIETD
Sequence of Caspase-3 (P42574 176-277): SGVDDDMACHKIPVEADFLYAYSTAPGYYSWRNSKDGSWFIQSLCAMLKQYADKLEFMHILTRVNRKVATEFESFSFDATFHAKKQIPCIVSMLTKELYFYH
Sequence of Caspase-8 (Q14790 217-374): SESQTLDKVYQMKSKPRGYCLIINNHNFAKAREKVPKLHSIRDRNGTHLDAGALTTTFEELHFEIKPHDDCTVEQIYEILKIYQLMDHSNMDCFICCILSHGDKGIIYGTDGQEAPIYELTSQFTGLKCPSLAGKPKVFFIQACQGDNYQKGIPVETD
Sequence of Caspase-8 (Q14790 385-479): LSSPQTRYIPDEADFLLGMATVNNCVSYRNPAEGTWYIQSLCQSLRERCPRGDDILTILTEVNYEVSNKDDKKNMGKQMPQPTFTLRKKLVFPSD
Sequence of Caspase-4 (P49662 81-270): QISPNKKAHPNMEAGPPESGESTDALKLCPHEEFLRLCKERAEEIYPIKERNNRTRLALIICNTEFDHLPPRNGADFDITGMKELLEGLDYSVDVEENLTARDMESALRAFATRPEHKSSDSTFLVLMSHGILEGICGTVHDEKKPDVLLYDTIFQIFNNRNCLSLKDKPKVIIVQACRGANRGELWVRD
Sequence of Caspase-4 (P49662 290-377): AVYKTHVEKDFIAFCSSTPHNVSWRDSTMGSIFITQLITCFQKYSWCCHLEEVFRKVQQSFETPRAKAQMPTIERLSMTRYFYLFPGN
Sequence of Caspase-5 (P51878 whole entry, looked up): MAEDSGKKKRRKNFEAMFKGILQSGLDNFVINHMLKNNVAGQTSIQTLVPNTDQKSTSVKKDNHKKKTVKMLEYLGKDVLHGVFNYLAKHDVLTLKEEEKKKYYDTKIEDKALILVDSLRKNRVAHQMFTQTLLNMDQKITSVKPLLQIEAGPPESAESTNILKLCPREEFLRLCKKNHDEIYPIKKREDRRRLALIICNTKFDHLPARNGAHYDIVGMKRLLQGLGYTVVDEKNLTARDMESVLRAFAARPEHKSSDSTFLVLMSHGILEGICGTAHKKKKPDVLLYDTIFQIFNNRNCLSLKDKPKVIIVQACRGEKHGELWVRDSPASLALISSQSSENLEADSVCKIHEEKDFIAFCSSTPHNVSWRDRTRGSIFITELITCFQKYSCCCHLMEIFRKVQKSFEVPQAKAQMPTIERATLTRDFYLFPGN
Sequence of Caspase-5 (P51878 whole entry, looked up): as above
Sequence of Caspase-2 (P42575 170-325): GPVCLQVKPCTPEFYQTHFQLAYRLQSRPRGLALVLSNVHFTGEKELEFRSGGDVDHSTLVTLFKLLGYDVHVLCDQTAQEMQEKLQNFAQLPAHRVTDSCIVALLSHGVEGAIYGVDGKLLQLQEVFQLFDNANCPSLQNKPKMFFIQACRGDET
Sequence of Caspase-2 (P42575 348-452): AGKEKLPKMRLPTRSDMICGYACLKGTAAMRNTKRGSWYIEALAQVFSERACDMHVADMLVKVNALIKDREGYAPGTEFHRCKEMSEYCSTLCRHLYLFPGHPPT
Sequence of Caspase-10 (Q92851 220-415): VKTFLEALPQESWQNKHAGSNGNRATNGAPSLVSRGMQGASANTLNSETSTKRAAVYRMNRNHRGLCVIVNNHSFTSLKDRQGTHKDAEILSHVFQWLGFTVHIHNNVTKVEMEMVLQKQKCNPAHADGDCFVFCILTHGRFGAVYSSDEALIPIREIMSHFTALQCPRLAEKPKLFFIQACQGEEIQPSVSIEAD
Sequence of Caspase-10 (Q92851 416-521): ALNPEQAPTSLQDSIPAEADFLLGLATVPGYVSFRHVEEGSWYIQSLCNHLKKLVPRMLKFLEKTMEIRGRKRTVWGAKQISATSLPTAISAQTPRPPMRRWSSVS
Sequence of Caspase-6 (P55212 24-179): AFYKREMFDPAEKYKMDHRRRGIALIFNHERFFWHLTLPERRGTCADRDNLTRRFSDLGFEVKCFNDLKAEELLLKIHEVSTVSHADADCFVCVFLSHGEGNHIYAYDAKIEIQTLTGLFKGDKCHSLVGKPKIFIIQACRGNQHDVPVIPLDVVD
Sequence of Caspase-6 (P55212 194-293): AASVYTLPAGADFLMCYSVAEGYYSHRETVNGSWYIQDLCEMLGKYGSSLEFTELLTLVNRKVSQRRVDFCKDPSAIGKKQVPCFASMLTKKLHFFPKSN

Broadly, the IC50 is the point on the concentration scale where inhibition reaches its midpoint. Turning to `CC(C)[C@H](NC(=O)[C@H](Cc1cccc2ccccc12)NC(=O)[C@H](CC(=O)O)NC(=O)OCc1ccccc1)C(=O)N[C@H](/C=C/S(C)(=O)=O)CC(=O)O` [Compound 111, Z-Asp-3-(1-naphtyl)-L-alanine-Val-Aspmethyl vinyl sulfone], the IC50 in assay [1] (setting [13]), in assay [2] (setting [14]), in assay [3] (setting [15]), in assay [4] (setting [16]), in assay [6] (setting [18]) and in [7] (setting [19]) was above 3.33 µM in each case. For the same compound, the IC50 in [8] is above 3.33 µM; in assay [9] (setting [20]) it was above 3.33 µM; in assay [10] it was 0.08 µM; in [11] (setting [21]), above 3.33 µM. The “effects on the clinical course of EAE” value in [5] (setting [17]) is listed as “ameliorating effects”. In addition, the “Delay in onset of the disease” value in assay [5] was “+”. For the same compound, the “Reduction in body weight loss” value in assay [5] is listed as “++”. Besides, the “Reduction in severity of the disease” value in assay [5] is “++”. The “inhibitory activity towards Caspase-3” value in assay [10] is “high inhibitory activity”.

For the compound `CC(C)[C@H](NC(=O)[C@@H](NC(=O)[C@H](CC(=O)O)NC(=O)OCc1ccccc1)c1ccccc1)C(=O)N[C@H](/C=C(\Cl)S(C)(=O)=O)CC(=O)O` [Compound 123, Z-Asp-phenylglycine-Val-Asp-achlorovinyl methylsulfone], the IC50 in assay [1] (setting [13]) was above 3.33 µM; in assay [2] (setting [14]) it was above 3.33 µM; in [3] (setting [15]) it was above 3.33 µM; in assay [4] (setting [16]), above 3.33 µM; in [6] (setting [18]), above 3.33 µM; in assay [7] (setting [19]) it was 0.5 µM. For the same compound, the IC50 is 2.8 µM in [8], 2 µM in [9] (setting [20]), 0.06 µM in assay [10] and above 3.33 µM in assay [11] (setting [21]). Besides, the “Loss of body weight” value in assay [5] (setting [17]) is “less than in the placebo group”. Also, the “effects on the clinical course of EAE” value in assay [5] (setting [17]) is given as “ameliorating effects”. In [5], the “Delay in onset of the disease” value is listed as “+”. For the same compound, in [5], the “Reduction in body weight loss” value is given as “+++”. The “Reduction in severity of the disease” value in assay [5] is reported as “++”. For the same compound, the “inhibitory activity towards Caspase-7” value in assay [7] (FIG. 5) is on record as “high inhibitory activity”. Further, the “inhibitory activity towards Caspase-9” value in assay [8] is “inhibitory activity”. The “inhibitory activity towards Caspase-10” value in assay [9] is given as “inhibitory activity”. In addition, the “inhibitory activity towards Caspase-3” value in assay [10] is “high inhibitory activity”.

For the compound `COC(=O)CC[C@H](NC(=O)[C@H](CC(=O)OC)NC(=O)OCc1ccccc1)C(=O)N[C@H](C(=O)N[C@@H](CC(=O)OC)C(=O)CF)C(C)C` [Z-DEVD-FMK, z-D(OMe)E(OMe)VD(OMe)FMK, reference compound], the IC50 in assay [1] is above 3.33 µM; in [2] it was above 3.33 µM; in [3], 0.7 µM; in [4], 2.5 µM; in [6], above 3.33 µM; in assay [7], above 3.33 µM. The IC50 came to 2.7 µM in [9] and 1.6 µM in [11]. Further, the “inhibitory activity towards Caspase-5” value in [1] (FIG. 5) was “negligible”. Also, the “inhibitory activity towards Caspase-6” value in assay [2] (FIG. 5) was “negligible”. The “inhibitory activity towards Caspase-1” value in assay [3] (FIG. 5) is reported as “inhibitory activity”. Further, in assay [4] (FIG. 5), the “inhibitory activity towards Caspase-4” value is listed as “inhibitory activity”. Further, the “inhibitory activity towards Caspase-2” value in assay [6] (FIG. 5) was “negligible”. The “inhibitory activity towards Caspase-9” value in assay [8] is on record as “inhibitory activity”. Besides, the “inhibitory activity towards Caspase-10” value in assay [9] is given as “inhibitory activity”. Moreover, in [11] (FIG. 5), the “inhibitory activity towards Caspase-8” value was “inhibitory activity”.

On to `COC(=O)C[C@H](NC(=O)[C@H](C)NC(=O)[C@@H](NC(=O)OCc1ccccc1)C(C)C)C(=O)CF` [Z-VAD-FMK, benzyloxycarbonyl-Val-Ala-Asp-fluoromethylketone] (Cbz-Val-Ala-Asp(OMe)-CH2F), for which the “inhibition by positive inhibitor control” value in assay [12] is recorded as above 50%.

Values taken from patent US9045524B2, “Selective caspase inhibitors and uses thereof” (NOVAGENESIS FOUNDATION, priority 2009, dated 2015).
